Where “and” joins values, the source holds several entries; their conditions need not be identical. Equal entries are not always repeated.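 The compound was tested at five concentrations on cells cultured in 96-well plates, with a 48-hour exposure period. GI50: concentration for 50% inhibition of growth. Definition used: TGI = concentration required for complete inhibition of growth.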
What was measured:
Assay in all cases: NCI tumour cell line growth inhibition, 48 h
OVCAR-8 ovarian = test system: OVCAR-8 ovarian
SW-620 colon = test system: SW-620 colon
SNB-19 CNS = test system: SNB-19 CNS
SF-295 CNS = test system: SF-295 CNS
SN12C renal = test system: SN12C renal
OVCAR-4 ovarian = test system: OVCAR-4 ovarian
SK-MEL-28 melanoma = test system: SK-MEL-28 melanoma
M14 melanoma = test system: M14 melanoma
PC-3 prostate = test system: PC-3 prostate
MDA-MB-435 = test system: MDA-MB-435

N.N.N.N.O=C([O-])CCl.O=C([O-])CCl.[Co+3].[O-][Cl+3]([O-])([O-])[O-]
GI50 (OVCAR-8 ovarian): > 100 µM
TGI (OVCAR-8 ovarian): > 100 µM
GI50 (SW-620 colon): > 100 µM
TGI (SW-620 colon): > 100 µM
GI50 (SNB-19 CNS): > 100 µM
TGI (SNB-19 CNS): > 100 µM
GI50 (SF-295 CNS): > 100 µM
TGI (SF-295 CNS): > 100 µM
GI50 (SN12C renal): > 100 µM
TGI (SN12C renal): > 100 µM
GI50 (OVCAR-4 ovarian): > 100 µM
TGI (OVCAR-4 ovarian): > 100 µM
GI50 (SK-MEL-28 melanoma): > 100 µM
TGI (SK-MEL-28 melanoma): > 100 µM
GI50 (M14 melanoma): > 100 µM
TGI (M14 melanoma): > 100 µM

CCCCOC(=O)CNC(=O)OC/C=C/C#CC#C/C=C/COC(=O)NCC(=O)OCCCC
GI50 (OVCAR-8 ovarian): > 100 µM
TGI (OVCAR-8 ovarian): > 100 µM
TGI (SW-620 colon): > 100 µM
GI50 (SNB-19 CNS): > 100 µM
TGI (SNB-19 CNS): > 100 µM
GI50 (SF-295 CNS): > 100 µM
TGI (SF-295 CNS): > 100 µM
GI50 (SN12C renal): > 100 µM
TGI (SN12C renal): > 100 µM
GI50 (OVCAR-4 ovarian): > 100 µM
TGI (OVCAR-4 ovarian): > 100 µM
GI50 (SK-MEL-28 melanoma): > 100 µM
TGI (SK-MEL-28 melanoma): > 100 µM
GI50 (M14 melanoma): > 100 µM
TGI (M14 melanoma): > 100 µM

Cc1c2n(c(=O)[nH]c1=O)C1OC(CO)C(O2)C1O (centres undefined)
TGI (OVCAR-8 ovarian): > 100 µM
TGI (SW-620 colon): > 100 µM
TGI (SNB-19 CNS): > 100 µM
TGI (SF-295 CNS): > 100 µM
TGI (SN12C renal): > 100 µM
TGI (OVCAR-4 ovarian): > 100 µM
TGI (SK-MEL-28 melanoma): > 100 µM

O=C1c2ccccc2C(=O)N1CCn1ccc(NC(c2ccccc2)(c2ccccc2)c2ccccc2)nc1=O
TGI (OVCAR-8 ovarian): > 100 µM
TGI (SW-620 colon): > 100 µM
TGI (SNB-19 CNS): 86.1 µM
TGI (SF-295 CNS): 28.8 µM
TGI (SN12C renal): 83 µM
TGI (OVCAR-4 ovarian): 59.2 µM
TGI (SK-MEL-28 melanoma): 32.1 µM
TGI (M14 melanoma): 43 µM

CC(=O)Nc1ccc(S(=O)(=O)N2C(=O)CCC2C(=O)Nc2ccc(Br)cc2)cc1 (centres undefined)
GI50 (OVCAR-8 ovarian): 2.6 µM
TGI (OVCAR-8 ovarian): 11.9 µM
GI50 (SW-620 colon): 3.19 µM
TGI (SW-620 colon): 27.6 µM
GI50 (SNB-19 CNS): 2.38 µM
TGI (SNB-19 CNS): 20.2 µM
GI50 (SF-295 CNS): 2.11 µM
TGI (SF-295 CNS): 12.1 µM
GI50 (SN12C renal): 2.79 µM
TGI (SN12C renal): 36 µM
GI50 (PC-3 prostate): 0.984 µM
TGI (PC-3 prostate): 12.1 µM
GI50 (MDA-MB-435): 2.72 µM
TGI (MDA-MB-435): 14.3 µM
GI50 (SK-MEL-28 melanoma): 3.49 µM
TGI (SK-MEL-28 melanoma): 20.9 µM
GI50 (M14 melanoma): 2.92 µM
TGI (M14 melanoma): 32.8 µM

CC(C)C(CCl)NC(=O)c1cccc(C(=O)N[C@H](CCl)C(C)C)n1 (stereo in doubt)
TGI (SW-620 colon): > 100 µM
TGI (SNB-19 CNS): > 100 µM
TGI (SF-295 CNS): > 100 µM
TGI (SN12C renal): > 100 µM
TGI (OVCAR-4 ovarian): > 100 µM
TGI (SK-MEL-28 melanoma): > 100 µM
TGI (M14 melanoma): > 100 µM

CC(=O)CCn1ncc(Cl)c(Cl)c1=O
TGI (OVCAR-8 ovarian): 54.9 µM
TGI (SW-620 colon): 39 µM
TGI (SNB-19 CNS): 32.9 µM
TGI (SF-295 CNS): 33.6 µM
TGI (SN12C renal): 27.9 µM
TGI (OVCAR-4 ovarian): 21.9 µM
TGI (SK-MEL-28 melanoma): 27.2 µM
TGI (M14 melanoma): 29.7 µM

CSc1nc(=O)n(CCC#N)nc1SC
TGI (OVCAR-8 ovarian): > 100 µM
TGI (SW-620 colon): 58.3 µM
TGI (SNB-19 CNS): > 100 µM
TGI (SF-295 CNS): > 100 µM
TGI (SN12C renal): > 100 µM
TGI (PC-3 prostate): > 100 µM
TGI (MDA-MB-435): > 100 µM
TGI (SK-MEL-28 melanoma): 47.8 µM
TGI (M14 melanoma): 39.9 µM

Nc1nc(Cl)cc(NCCCCCCCCNc2cc(Cl)nc(N)n2)n1
TGI (OVCAR-8 ovarian): 58.6 µM
TGI (SW-620 colon): > 100 µM
TGI (SNB-19 CNS): > 100 µM
TGI (SF-295 CNS): 92.1 µM
TGI (SN12C renal): > 100 µM
TGI (OVCAR-4 ovarian): > 100 µM
TGI (SK-MEL-28 melanoma): > 100 µM
TGI (M14 melanoma): > 100 µM

CN1CC(=O)N2Cc3ccccc3-n3cccc3C2C1 (centres undefined)
TGI (OVCAR-8 ovarian): > 100 µM
TGI (SW-620 colon): > 100 µM
TGI (SNB-19 CNS): > 100 µM
TGI (SF-295 CNS): > 100 µM
TGI (SN12C renal): > 100 µM
TGI (OVCAR-4 ovarian): > 100 µM
TGI (SK-MEL-28 melanoma): > 100 µM
TGI (M14 melanoma): > 100 µM

O=c1/c(=C/c2ccccc2[N+](=O)[O-])sc2nnc(-c3ccco3)n12
TGI (OVCAR-8 ovarian): 32.5 µM
TGI (SW-620 colon): 46.8 µM
TGI (SNB-19 CNS): 56.3 µM
TGI (SF-295 CNS): 55.5 µM
TGI (SN12C renal): > 100 µM
TGI (OVCAR-4 ovarian): 40 µM
TGI (SK-MEL-28 melanoma): 57 µM
TGI (M14 melanoma): 33.3 µM

Cc1ccc(SC2c3ccc(C)cc3Oc3nc(N)c(C#N)c(N)c32)cc1 (centres undefined)
GI50 (OVCAR-8 ovarian): 1.67 µM
TGI (OVCAR-8 ovarian): 3.06 µM
GI50 (SW-620 colon): 1.84 µM
TGI (SW-620 colon): 3.84 µM
GI50 (SNB-19 CNS): 1.86 µM
TGI (SNB-19 CNS): 3.71 µM
GI50 (SF-295 CNS): 6.77 µM
TGI (SF-295 CNS): 19.5 µM
GI50 (PC-3 prostate): 1.85 µM
TGI (PC-3 prostate): 3.74 µM
GI50 (MDA-MB-435): 1.81 µM
TGI (MDA-MB-435): 3.4 µM
GI50 (OVCAR-4 ovarian): 1.8 µM
TGI (OVCAR-4 ovarian): 3.29 µM
GI50 (SK-MEL-28 melanoma): 1.83 µM
TGI (SK-MEL-28 melanoma): 3.35 µM
GI50 (M14 melanoma): 1.77 µM
TGI (M14 melanoma): 3.49 µM

OC(CC1SCCCS1)c1ccccc1 (centres undefined)
TGI (OVCAR-8 ovarian): > 100 µM
TGI (SW-620 colon): > 100 µM
TGI (SNB-19 CNS): > 100 µM
TGI (SF-295 CNS): > 100 µM
TGI (SN12C renal): > 100 µM
TGI (OVCAR-4 ovarian): > 100 µM
TGI (M14 melanoma): > 100 µM

COC(=O)C(C(=O)c1ccccc1)C(C(=O)C(=O)Nc1ccc(OC)cc1OC)C(=O)C(=O)c1ccc(C)cc1 (centres undefined)
TGI (OVCAR-8 ovarian): > 100 µM
TGI (SW-620 colon): > 100 µM
TGI (SNB-19 CNS): > 100 µM
TGI (SF-295 CNS): > 100 µM
TGI (SN12C renal): > 100 µM
TGI (OVCAR-4 ovarian): > 100 µM
TGI (SK-MEL-28 melanoma): > 100 µM
TGI (M14 melanoma): > 100 µM

Cc1cn2c(=O)c3ncn(C4OC(CO)C(O)C4O)c3n(C)c2n1 (centres undefined)
TGI (OVCAR-8 ovarian): > 100 µM
TGI (SW-620 colon): > 100 µM
TGI (SNB-19 CNS): > 100 µM
TGI (SF-295 CNS): > 100 µM
TGI (SN12C renal): > 100 µM
TGI (OVCAR-4 ovarian): > 100 µM
TGI (SK-MEL-28 melanoma): > 100 µM
TGI (M14 melanoma): > 100 µM

CO/N=C(\C(=O)OC(=NC1CCCCC1)NC1CCCCC1)c1csc(NC(c2ccccc2)(c2ccccc2)c2ccccc2)n1
TGI (OVCAR-8 ovarian): > 10 µM
TGI (SW-620 colon): > 10 µM
TGI (SNB-19 CNS): > 10 µM
TGI (SF-295 CNS): > 10 µM
TGI (SN12C renal): > 10 µM
TGI (PC-3 prostate): > 10 µM
TGI (OVCAR-4 ovarian): > 10 µM
TGI (SK-MEL-28 melanoma): > 10 µM
TGI (M14 melanoma): > 10 µM

Clc1ccc2c(c1)[nH]c1c2nc2ccccn21
GI50 (OVCAR-8 ovarian): 44.5 µM and 17 µM
TGI (OVCAR-8 ovarian): > 100 µM and 33.1 µM
TGI (SW-620 colon): 38.3 µM and 45.3 µM
TGI (SNB-19 CNS): 58.6 µM and 35.3 µM
GI50 (SF-295 CNS): > 100 µM and 15.7 µM
TGI (SF-295 CNS): > 100 µM and 35.4 µM
GI50 (SN12C renal): 36.1 µM and 15.4 µM
TGI (SN12C renal): > 100 µM and 32.2 µM
TGI (SK-MEL-28 melanoma): 62.4 µM and 31.3 µM
TGI (M14 melanoma): 64.5 µM and 36.9 µM

COc1ccc2occ(CCC(=O)O)c2c1
TGI (OVCAR-8 ovarian): > 100 µM
TGI (SW-620 colon): > 100 µM
TGI (SNB-19 CNS): > 100 µM
TGI (SF-295 CNS): > 100 µM
TGI (SN12C renal): > 100 µM
TGI (OVCAR-4 ovarian): > 100 µM
TGI (SK-MEL-28 melanoma): > 100 µM
TGI (M14 melanoma): > 100 µM

CCC12CCCN(Cc3ccccc3)C1c1c(n(C)c3ccccc13)CC2 (centres undefined)
TGI (OVCAR-8 ovarian): > 253 µM
TGI (SW-620 colon): > 253 µM
TGI (SNB-19 CNS): > 253 µM
TGI (SF-295 CNS): > 253 µM
TGI (SN12C renal): > 253 µM
TGI (SK-MEL-28 melanoma): > 253 µM

NC(=O)/C=C/C(=O)c1c(Cl)cccc1Cl
GI50 (OVCAR-8 ovarian): 1.75 µM
TGI (OVCAR-8 ovarian): 3.27 µM
GI50 (SW-620 colon): 0.511 µM
TGI (SW-620 colon): 1.04 µM
GI50 (SNB-19 CNS): 1.75 µM
TGI (SNB-19 CNS): 3.38 µM
GI50 (SF-295 CNS): 2.54 µM
TGI (SF-295 CNS): 7.35 µM
GI50 (SN12C renal): 1.4 µM
TGI (SN12C renal): 2.69 µM
GI50 (PC-3 prostate): 1.46 µM
TGI (PC-3 prostate): 2.81 µM
GI50 (MDA-MB-435): 1.3 µM
TGI (MDA-MB-435): 3.48 µM
GI50 (SK-MEL-28 melanoma): 1.21 µM
TGI (SK-MEL-28 melanoma): 2.52 µM
GI50 (M14 melanoma): 1.45 µM
TGI (M14 melanoma): 2.76 µM

Reference: PubChem BioAssay (NCI)
